Data set [1] is described as follows: in vitro. Type of data set: in vitro ADME. The note with it: human, cells or culture medium, bradykinin present in media.
The nature of data set [2]: in vitro. Type of data set: in vitro ADME. The note with it: human, cells or culture medium, bradykinin remaining in media.

No end group written: not given here.

In the data set “in vitro [1]”, RPPGFSPFR [bradykinin] showed an amount remaining at 0.5 h, 500 pg/ml of 73 ± 3% and a share remaining at 1 h, 500 pg/ml of 52 ± 3%. In “in vitro [2]”, the fraction remaining at 0.5 h, 500 pg/ml came out at 51 ± 5%; the fraction remaining at 1 h, 500 pg/ml was determined as 15 ± 3%; the share remaining at 1.5 h, 500 pg/ml was 9 ± 3%.

The values above are taken from article PMC2713788 (Experimental eye research, 2009).
